In paper PMC7552967, “Anti-Melanoma Activities of Artemisone and Prenylated Amino-Artemisinins in Combination With Known Anticancer Drugs” (Frontiers in Pharmacology, 2020):

System: A375 melanoma cells
Experiment: FITC Annexin V/PI flow cytometry, A375
Type: cell-based, human
Settings: A375, 24 h
Protocol: The FITC Annexin V apoptosis detection kit I (BD Pharmigen™, BD Biosciences, San Jose, CA, USA) was used for the detection of apoptosis using flow cytometry. FITC Annexin V emits green fluorescence which indicates apoptosis, whereas propidium iodide (PI) emits red fluorescence and stains dead cells ([Vermes et al., 1995]). The assay was performed according to the manufacturer’s instructions with minor alterations. In brief, cells were seeded in a 96-well plate and grown to ~90% confluence. The cells were exposed to amounts of the prenylated piperazine derivatives and combinations with elesclomol-Cu(II) 1-Cu corresponding to the IC50 values. […] After incubation, 100 µl 1X binding buffer was added to each tube and then analyzed using the BD FACSVerse™ and BD FACSuite™ Software. […] At least 10,000 cellular events were analyzed for each sample. A logarithmic amplification scale was employed and events plotted on forward scatter (FSC), side scatter (SSC), green fluorescence (FL1) and red fluorescence (FL2). […]
Flow cytometry was employed to establish if the observed decrease in cell viability in melanoma cells was of necrotic or apoptotic origin. Cultured melanoma and keratinocyte cells were exposed to predetermined IC50 concentrations of the prenylated piperazine-DHA derivatives and analyzed using the FITC Annexin V/PI flow cytometry assay. […]
Figure 8 Apoptosis measured by FITC Annexin V/PI assay. […]

Row | Compound | Cells undergoing apoptosis (IC50 concentrations (6 45 µM, 7 30 µM, 1-Cu 2 nM; combinations 1:1)) [%] | Late apoptosis/necrosis (FITC-Annexin V positive and PI positive) (45 µM) [%]
1 | CC(C)=CCC/C(C)=C/CC/C(C)=C/CN1CCN([C@@H]2O[C@@H]3O[C@@]4(C)CC[C@H]5[C@H](C)CC[C@@H]([C@H]2C)[C@@]35OO4)CC1 [Farnesylpiperazine-DHA 7, farnesylpiperazine-DHA] | 30.5 ± 3.7 | –
2 | CC(C)=CCC/C(C)=C/CN1CCN([C@@H]2O[C@@H]3O[C@@]4(C)CC[C@H]5[C@H](C)CC[C@@H]([C@H]2C)[C@@]35OO4)CC1 [Geranylpiperazine-DHA 6, geranylpiperazine-DHA] | – | 37.7 ± 2.1
